The values that follow come from EP1004870A1, “Liquid barriers for assays” (Aurora Biosciences Corporation, priority 1998, dated 2000).

The test deals with T1, M1 receptor (Homo sapiens, UniProt P11229).
T1 sequence (P11229 1-460): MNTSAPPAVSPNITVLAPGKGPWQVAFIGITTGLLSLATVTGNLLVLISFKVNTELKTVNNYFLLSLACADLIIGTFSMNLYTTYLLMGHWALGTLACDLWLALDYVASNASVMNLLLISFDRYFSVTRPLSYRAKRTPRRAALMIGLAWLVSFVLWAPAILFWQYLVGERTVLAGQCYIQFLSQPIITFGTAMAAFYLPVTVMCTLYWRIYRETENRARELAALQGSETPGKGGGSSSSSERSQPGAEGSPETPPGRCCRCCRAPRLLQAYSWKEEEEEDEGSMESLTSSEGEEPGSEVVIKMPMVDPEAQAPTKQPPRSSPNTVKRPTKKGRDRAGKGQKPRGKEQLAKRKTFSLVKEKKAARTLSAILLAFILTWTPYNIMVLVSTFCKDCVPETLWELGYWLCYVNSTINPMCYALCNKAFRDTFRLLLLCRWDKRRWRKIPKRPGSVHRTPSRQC
Briefly: Antagonist assay: beta-lactamase expression in carbachol-stimulated Jurkat C2 cells (CCF2/AM fluorescence read-out), mechanical vs liquid barrier.

Setting [1] is: Liquid barrier (silicone oil, Dow Corning Silicone 200 Fluid 5.0 cs), cells stimulated with carbachol, 96-well plate.
[2] abbreviates: Mechanical barrier (polystyrene lid), cells stimulated with carbachol, 96-well plate.

Several values for one entry are separate records, joined by “and”; a condition that tells them apart may be missing. Equal values may be shown once. Read-outs that look alike come from different tables or passages of the source.

Turning to `C[N+]12CCC(CC1)C(OC(=O)C(O)(c1ccccc1)c1ccccc1)C2` (stereo not drawn) [Clidinium], the “Percent inhibition of beta- lactamase expression in C2 cells in response to the presence of the indicated chemical” value (“Percent inhibition” for short) was 82% and 91%.

In the case of `CCN(CC)C(C)CN1c2ccccc2Sc2ccccc21` (stereo not drawn) [Ethopropazine], the “Percent inhibition” value amounted to 43% under setting [1] and 88% under setting [2].

Regarding `C[N+]1(C)CCCC(OC(=O)C(O)(c2ccccc2)c2ccccc2)C1` (stereo not drawn) [Mepenzolate], the “Percent inhibition” value under setting [1] is 90% and the “Percent inhibition” value under setting [2] is given as 91%.

With `CC(C)[N+](C)(CCOC(=O)C1c2ccccc2Oc2ccccc21)C(C)C` [Propantheline], the “Percent inhibition” value by setting is: under setting [1], 95%; under setting [2], 95%.

Turning to Isopropamine, the “Percent inhibition” value by setting is: under setting [1], 78%; under setting [2], 91%.
